Data: US12232496B2, “Methods and system for stimulating root exudation in plants” (YEDA RESEARCH AND DEVELOPMENT CO. LTD, priority 2018, dated 2025)

Tested on: Catharanthus roseus
Assay: Split-root Catharanthus roseus seedlings: Root A stimulated, exudates analysed by MRM-LC-MS/MS
Type: in vivo
Conditions: applied to Root A; Root B exudate a week after stimulation; FIG. 16B
Description: Split roots are generated by cutting off the primary root. Lateral roots are then regenerated until they are long enough for the lateral roots to be placed directly in separate hydroponics or aeroponics containers. Each container is fed with plant medium.
Catharanthus roseus were grown, and split roots were obtained using the methods of Example 2. After lateral roots emerged, roots were aseptically placed separately in two 20 ml glass containers containing 0.5× Hoagland nutrient solution. Similar to Example 8, Root A of seedlings was stimulated with methyl-jasmonate, while growing in hydroponics using plant nutrient medium. Plants were incubated at 24° C. with a photoperiod of 16 h. A week after stimulation, the plant medium containing exudates from Root A and B were collected, filtered and extracted for LC-MS analysis. FIG. 16A depicts the MRM-LC-MS/MS analysis of C. roseus exudates. Vinca alkaloids present in the exudates of Root B after methyl jasmonate stimulation (FIG. 16A, top) and control plants (FIG. 16A, bottom) were analyzed via total ion current chromatograms. The quantification of three vinca alkaloids (19S-Vindolinine_RT_3.93, Vindolinine_RT_4.96, and Catarantine_11.77) was performed using an external standard curve of these three metabolites (FIG. 16B). […]

CC/C=C\CC1C(=O)CCC1CC(=O)OC (stereo not shown) [Methyl jasmonate, methyl jasmonate]
Vindolinine found in Root B exudate of treated plants, fold increase: up to 32 ×
